From patent US20060069132A1, “Azolecarboxamide herbicides” (priority 2004, published 2006)

Experiments:
lambsquarters = assay: Test C pre-/postemergence herbicide test; type: in vivo, Chenopodium album; details: preemergence; for Plant response rating (0 = no effect, 100 = complete control), Lambsquarters: 125 g ai/ha
Summary of the method: (§1)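 Visual injury scores run from 0 (no effect) to 100 (complete control), assessed relative to untreated controls 12 to 14 days after treatment in the greenhouse. Chemicals were formulated in a non-phytotoxic solvent mixture with surfactant and applied to soil after planting or to emerged plants at the 1- to 4-leaf stage.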

woolly cupgrass = assay: Test C pre-/postemergence herbicide test; type: in vivo, Eriochloa villosa; details: preemergence; for Plant response rating (0 = no effect, 100 = complete control), Cupgrass, Woolly: 125 g ai/ha
Summary of the method: as §1

rice = assay: Test C flooded paddy test; type: in vivo, Oryza sativa; details: for Plant response rating, Rice: 500 g ai/ha, visual rating after 12 to 14 days
Summary of the method: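 Injury scored visually against controls on a 0 (no effect) to 100 (complete control) scale, 12 to 14 days after treatment in greenhouse. Flooded paddy plants treated at 2-leaf stage; postemergence plants at 1- to 4-leaf stage, 2 to 18 cm tall.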

[1] = system: smallflower umbrella sedge; assay: Test C flooded paddy test; type: in vivo, Cyperus difformis; details: for Plant response rating, Sedge, Umbrella: 500 g ai/ha, visual rating after 12 to 14 days
[2] = system: common (oilseed) sunflower; assay: Test C pre-/postemergence herbicide test; type: in vivo, Helianthus annuus; details: preemergence; for Plant response rating (0 = no effect, 100 = complete control), Sunflower: 125 g ai/ha
Summary of the method: as §1

large crabgrass = assay: Test C pre-/postemergence herbicide test; type: in vivo, Digitaria sanguinalis; details: preemergence; for Plant response rating (0 = no effect, 100 = complete control), Crabgrass, Large: 125 g ai/ha
Summary of the method: as §1

giant foxtail = assay: Test C pre-/postemergence herbicide test; type: in vivo, Setaria faberi; details: preemergence; for Plant response rating (0 = no effect, 100 = complete control), Foxtail, Giant: 125 g ai/ha
Summary of the method: as §1

pigweed = assay: Test C pre-/postemergence herbicide test; type: in vivo, Amaranthus retroflexus; details: preemergence; for Plant response rating (0 = no effect, 100 = complete control), Pigweed: 125 g ai/ha
Summary of the method: as §1

[3] = 500 g ai/ha, scale 0 to 100 (0 no effect, 100 complete control), visual, 12 to 14 days
[4] = 125 g ai/ha, scale 0 to 100 (0 no effect, 100 complete control)
[5] = 250 g ai/ha, scale of 0 to 100, 0 is no effect, 100 is complete control
[6] = scale 0 to 100 (0 no effect, 100 complete control)

SMILES: CCNC(=O)c1cccc(NC(=O)c2nn(C(C)(C)CC)nc2CC)c1 [Compound 376]
- Plant response rating, Lambsquarters (lambsquarters; 62 g ai/ha, scale 0 to 100): 100
- Plant response rating (0 = no effect, 100 = complete control), Lambsquarters (lambsquarters): 100
- Plant response rating, Lambsquarters (lambsquarters; 250 g ai/ha, scale 0-100): 100
- Plant response rating, Lambsquarters (lambsquarters; [3]): 100
- Plant response rating, Cupgrass, Woolly (woolly cupgrass; 62 g ai/ha, scale 0 to 100): 5
- Plant response rating (0 = no effect, 100 = complete control), Cupgrass, Woolly (woolly cupgrass): 30
- Plant response rating, Cupgrass, Woolly (woolly cupgrass; 250 g ai/ha, scale 0-100): 75
- Plant response rating, Cupgrass, Woolly (woolly cupgrass; [3]): 85
- Rice plant response rating (rice; 62 g ai/ha, scale 0 to 100): 70
- Rice plant response rating (rice; [4]): 75
- Rice plant response rating (rice; [5]): 75
- Plant response rating, Rice (rice; [6]): 80
- Sedge, Umbrella plant response rating ([1]; 62 g ai/ha, scale 0 to 100): 80
- Sedge, Umbrella plant response rating [1, 4]: 85
- Sedge, Umbrella plant response rating [1, 5]: 85
- Plant response rating, Sedge, Umbrella [1, 6]: 85
- Plant response rating, Sunflower ([2]; 62 g ai/ha, scale 0 to 100): 0
- Plant response rating (0 = no effect, 100 = complete control), Sunflower [2]: 0
- Plant response rating, Sunflower ([2]; 250 g ai/ha, scale 0-100): 0
- Plant response rating, Sunflower [2, 3]: 0
- Plant response rating, Crabgrass, Large (large crabgrass; 62 g ai/ha, scale 0 to 100): 80
- Plant response rating (0 = no effect, 100 = complete control), Crabgrass, Large (large crabgrass): 100
- Plant response rating, Crabgrass, Large (large crabgrass; 250 g ai/ha, scale 0-100): 100
- Plant response rating, Crabgrass, Large (large crabgrass; [3]): 100
- Plant response rating, Foxtail, Giant (giant foxtail; 62 g ai/ha, scale 0 to 100): 10
- Plant response rating (0 = no effect, 100 = complete control), Foxtail, Giant (giant foxtail): 85
- Plant response rating, Foxtail, Giant (giant foxtail; 250 g ai/ha, scale 0-100): 95
- Plant response rating, Foxtail, Giant (giant foxtail; [3]): 100
- Plant response rating, Pigweed (pigweed; 62 g ai/ha, scale 0 to 100): 100
- Plant response rating (0 = no effect, 100 = complete control), Pigweed (pigweed): 100
- Plant response rating, Pigweed (pigweed; 250 g ai/ha, scale 0-100): 100
- Plant response rating, Pigweed (pigweed; [3]): 100

SMILES: Cc1nn(C(C)(C)C)nc1C(=O)Nc1cccc(C(=O)N(C)C)c1 [Compound 391]
- Plant response rating, Lambsquarters (lambsquarters; 62 g ai/ha, scale 0 to 100): 100
- Plant response rating (0 = no effect, 100 = complete control), Lambsquarters (lambsquarters): 100
- Plant response rating, Lambsquarters (lambsquarters; 250 g ai/ha, scale 0-100): 100
- Plant response rating, Lambsquarters (lambsquarters; [3]): 100
- Plant response rating, Cupgrass, Woolly (woolly cupgrass; 62 g ai/ha, scale 0 to 100): 70
- Plant response rating (0 = no effect, 100 = complete control), Cupgrass, Woolly (woolly cupgrass): 75
- Plant response rating, Cupgrass, Woolly (woolly cupgrass; 250 g ai/ha, scale 0-100): 80
- Plant response rating, Cupgrass, Woolly (woolly cupgrass; [3]): 100
- Rice plant response rating (rice; 62 g ai/ha, scale 0 to 100): 65
- Rice plant response rating (rice; [4]): 65
- Rice plant response rating (rice; [5]): 75
- Plant response rating, Rice (rice; [6]): 80
- Sedge, Umbrella plant response rating ([1]; 62 g ai/ha, scale 0 to 100): 80
- Sedge, Umbrella plant response rating [1, 4]: 80
- Sedge, Umbrella plant response rating [1, 5]: 85
- Plant response rating, Sedge, Umbrella [1, 6]: 95
- Plant response rating, Sunflower ([2]; 62 g ai/ha, scale 0 to 100): 50
- Plant response rating (0 = no effect, 100 = complete control), Sunflower [2]: 95
- Plant response rating, Sunflower ([2]; 250 g ai/ha, scale 0-100): 100
- Plant response rating, Sunflower [2, 3]: 100
- Plant response rating, Crabgrass, Large (large crabgrass; 62 g ai/ha, scale 0 to 100): 98
- Plant response rating (0 = no effect, 100 = complete control), Crabgrass, Large (large crabgrass): 100
- Plant response rating, Crabgrass, Large (large crabgrass; 250 g ai/ha, scale 0-100): 100
- Plant response rating, Crabgrass, Large (large crabgrass; [3]): 100
- Plant response rating, Foxtail, Giant (giant foxtail; 62 g ai/ha, scale 0 to 100): 85
- Plant response rating (0 = no effect, 100 = complete control), Foxtail, Giant (giant foxtail): 100
- Plant response rating, Foxtail, Giant (giant foxtail; 250 g ai/ha, scale 0-100): 100
- Plant response rating, Foxtail, Giant (giant foxtail; [3]): 100
- Plant response rating, Pigweed (pigweed; 62 g ai/ha, scale 0 to 100): 95
- Plant response rating (0 = no effect, 100 = complete control), Pigweed (pigweed): 100
- Plant response rating, Pigweed (pigweed; 250 g ai/ha, scale 0-100): 100
- Plant response rating, Pigweed (pigweed; [3]): 100
